Source: PMC11272598, “RG7774 (Vicasinabin), an orally bioavailable cannabinoid receptor 2 (CB2R) agonist, decreases retinal vascular permeability, leukocyte adhesion, and ocular inflammation in animal models” (Frontiers in Pharmacology, 2024)

Key:
[1] = system: Human EMT; assay: Human EMT activity (HaCaT cells); type: cell-based; details: RG7774 10 µM
Protocol: HaCaT cells were seeded (350,000–400,000 cell/well) in triplicate in 12-well plates and incubated for 15 min in PBS at 37°C with [^3H]-N-arachidonoylethanolamine ([^3H]-AEA) (400 nM) (ARC, MO, USA), as previously reported. Experiments were repeated at 4°C in order to subtract passive diffusion from EMT-mediated uptake. RG7774 (10 µM) was preincubated with labeled HaCaT cells for 15 min before adding directly to the incubation medium (PBS). The selective EMT inhibitor, OMDM-1 (40 µM), was used as positive control.

[2] = Thermodynamic solubility (THESA/FaSSIF/FeSSIF); type: physicochemical
Source text: S2.2 Thermodynamic solubility assay (THESA)

[3] = biological target: T1, Human 12-LOX (Homo sapiens, UniProt P18054); assay: Human 12-LOX assay; type: biochemical; details: RG7774 10 µM; read-out: Mean ± SEM % inhibition of control, Human 12-LOX
T1 construct: human platelet-derived 12-LOX; from tissue; host or cells: human platelets
Protocol: The inhibitory effects of different concentrations of RG7774 (0.1-500 µM) on the activities of human recombinant 5-LOX (Cayman Chemical Company #60402), 15-LOX (Cayman Chemical Company #10011263), and human platelet-derived 12-LOX were determined using the Biovision Lipoxygenase Activity Assay Kit (#BVN-K978-100). This kit converts the LOX substrate to an intermediate that reacted with the probe, generating a fluorescent product. The effect of RG7774 (preincubated for 15 min) at 10 µM on LOXs (5-LOX: 0.5 or 1.2 µg; 12-LOX: 20 µg; 15-LOX: 0.23 or 0.3 µg) was ascertained by adding the compounds directly to the incubation medium and the fluorescent signal, recorded at excitation/emission 500/536 nm at 30 sec intervals for 30-40 min, was directly proportional to LOX activity. […] The percentage of human 5-, 12-, and 15-LOX activity (control) was estimated from the amount of oxidized probe in the reaction using a standard curve.

T1 sequence (P18054 whole entry): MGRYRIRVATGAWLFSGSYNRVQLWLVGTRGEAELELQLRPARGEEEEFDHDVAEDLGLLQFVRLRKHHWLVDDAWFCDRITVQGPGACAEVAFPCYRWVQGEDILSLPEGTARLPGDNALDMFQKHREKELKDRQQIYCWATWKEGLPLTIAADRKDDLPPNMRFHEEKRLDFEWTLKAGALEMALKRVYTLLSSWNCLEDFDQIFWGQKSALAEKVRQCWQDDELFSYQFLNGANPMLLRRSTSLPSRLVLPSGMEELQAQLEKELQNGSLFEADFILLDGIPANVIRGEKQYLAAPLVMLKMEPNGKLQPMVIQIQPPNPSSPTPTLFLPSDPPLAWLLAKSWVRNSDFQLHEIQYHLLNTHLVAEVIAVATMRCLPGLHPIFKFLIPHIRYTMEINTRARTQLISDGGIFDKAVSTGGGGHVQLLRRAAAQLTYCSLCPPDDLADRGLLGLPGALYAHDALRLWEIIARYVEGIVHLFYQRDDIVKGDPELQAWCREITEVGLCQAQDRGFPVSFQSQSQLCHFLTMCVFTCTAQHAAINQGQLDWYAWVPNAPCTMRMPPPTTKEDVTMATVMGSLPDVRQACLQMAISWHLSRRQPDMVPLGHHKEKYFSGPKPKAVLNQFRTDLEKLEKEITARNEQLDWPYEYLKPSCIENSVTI

Question: Which “Mean ± SEM % inhibition of control, Human EMT” value [1] does the source give for Cn1nnnc1Cn1nnc2c(N3CC[C@H](O)C3)nc(C(C)(C)C)nc21 [RG7774, (S)-1-(5-tert-butyl-3-[(1-methyl-1H-tetrazol-5-yl)methyl]-3H-[1,2,3]triazolo[4,5-d]pyrimidin-7-yl)pyrrolidin-3-ol] here?
Answer: 4.5 ± 25.5%

Question: And the FaSSIF ([2]; fasted simulated gastrointestinal fluid)?
Answer: 1177 µg/mL

Question: And the FeSSIF ([2]; fed simulated gastrointestinal fluid)?
Answer: 2872 µg/mL

Question: And the THESA ([2]; thermodynamic solubility)?
Answer: 901 µg/mL

Question: And the inhibition at 10 µM [3]?
Answer: 1.5 ± 1.8%
